Test results taken from US12053473B2, “Benzylamino substituted quinazolines and derivatives as SOS1 inhibitors” (priority 2016, dated 2024).

biological target: SOS1 and KRAS G12D (protein-protein interaction) (Homo sapiens, UniProt Q07889); assay: KRAS::SOS1 AlphaScreen binding assay; conditions: not given
Experimental: KRAS::SOS1 AlphaScreen Binding Assay
Low IC50 values are indicative of high potency of the SOS1 inhibitor compound in this assay setting:
10 nM (final assay concentration) KRAS G12D, 10 μM (final assay concentration) GDP and 5 nM (final assay concentration) GST-SOS1 are mixed in assay buffer prior to use and kept at room temperature.
AlphaLSA Glutathione Acceptor Beads and AlphaScreen Streptavidin Donor Beads are mixed in assay buffer at a concentration of 10 μg/mL (final assay concentration) each prior to use and kept at room temperature.
Compounds are diluted to a final start concentration of 100 μM and are tested in duplicate. […] For compound a start concentration of 100 μM, 150 nL of compound solution is transferred per well in 11 concentrations in duplicate with serial 1:5 dilutions.
The assay is run using a fully automated robotic system in a darkened room below 100 Lux. 10 μL of KRAS::SOS1 GDP mix is added into columns 1-24 to the 150 nL of compound solution (final dilution in the assay 1:100, final DMSO concentration 1%).
After a 30 minute incubation time 5 μL of bead mix is added into columns 1-23. Plates are kept at room temperature in a darkened incubator. After a further 60 minute incubation, the signal is measured using a PerkinElmer Envision HTS Multilabel Reader using the AlphaScreen specifications from PerkinElmer. Each plate contains the following controls: • diluted DMSO+KRAS::SOS1 GDP mix+bead mix • diluted DMSO+KRAS::SOS1 GDP mix Result Calculation:
IC50 values are calculated and analyzed using a 4 parametric logistic model.

First: COc1cc2nc(C)nc(N[C@H](C)c3cccc(C(F)(F)F)c3F)c2cc1[C@]1(O)CC[C@@H](O)CC1 [I-58]
Second: Cc1nc(N[C@H](C)c2cccc(C(F)(F)F)c2)c2cc([C@]3(O)CC[C@@H](O)CC3)ccc2n1 [I-60]
The IC50 of the first is 1.7-fold lower: 6 nM for the first, 10 nM for the second.

In the case of Cc1nc(N[C@H](C)c2cccc(C(F)(F)F)c2)c2cc([C@]3(O)CC[C@H](O)CC3)cc(C)c2n1 [I-55], the IC50 is reported as 20 nM.

same assay, conditions: assay buffer with 100 μM EDTA (values marked with an asterisk); read-out: IC50 (SOS1)

Going from Cc1cccc([C@@H](C)Nc2nc(C)nc3ccc(C4CCS(=O)(=O)CC4)cc23)c1 [I-161] to COc1cc2nc(C)nc(N[C@H](C)c3cccc(S(C)(=O)=O)c3)c2cc1O[C@H]1CCOC1 [I-3], the IC50 rises from 29 nM to 47 nM (1.6-fold). The first is the more potent here.

Cc1nc(N[C@H](C)c2cccc(Cl)c2F)c2cc(C3=CCNCC3)ccc2n1 [I-170] gave an IC50 of 24 nM.

same assay, conditions: assay buffer without EDTA (values not marked with an asterisk); read-out: IC50 (SOS1)

Cc1cccc([C@@H](C)Nc2nc(C)nc3c(C)cc(C4CCN(C(C)C)CC4)cc23)c1 [I-289] and Cc1cccc([C@@H](C)Nc2nc(C)nc3cc(C)c(C4CCN(C(C)C)CC4)cc23)c1 [I-288] are within 1.5-fold of each other in IC50: 18 nM for the first, 22 nM for the second.

Going from COc1cc2nc(C)nc(N[C@H](C)c3cccc(C4(O)COC4)c3)c2cc1C1CCN(C(C)=O)CC1 [I-167] to COCC(=O)N1CCC(c2cc3c(N[C@H](C)c4cccc(C(F)(F)CO)c4)nc(C)nc3cc2OC)CC1 [I-165], the IC50 falls from 18 nM to 2 nM (9-fold). The second is the more potent here.

First: COc1c(C2(O)CCN(C(C)=O)CC2)cc2c(N[C@H](C)c3cccc(C(F)(F)F)c3F)nc(C)nc2c1C [I-20]
Second: COc1cc2nc(C)nc(N[C@H](C)c3cccc(C(F)(F)F)c3F)c2cc1C1(O)CCN(C(C)=O)CC1 [I-45]
The IC50 of the first is 3.5-fold higher: 7 nM for the first, 2 nM for the second.

Cc1cccc([C@@H](C)Nc2nc(C)nc3ccc(C4CCOCC4)cc23)c1 [I-154] and Cc1nc(N[C@H](C)c2cccc(C(F)(F)F)c2)c2cc(C3CCOCC3)ccc2n1 [I-153] are within 1.5-fold of each other in IC50: 43 nM for the first, 33 nM for the second.

Going from COc1cc2nc(C)nc(N[C@H](C)c3cccc(C(F)(F)F)c3)c2cc1O[C@H]1CCN(C(C)=O)C1 [I-5] to CC(=O)N1CC[C@H](Oc2cc3c(N[C@H](C)c4cc(N)cc(C(F)(F)F)c4)nc(C)nc3cc2F)C1 [I-8], the IC50 falls from 13 nM to 6 nM (2.2-fold). The second is the more potent here.

Going from COCC(=O)N1CCC(O)(c2ccc3nc(C)nc(N[C@H](C)c4cccc(C(F)(F)F)c4)c3c2)CC1 [I-49] to COc1cc2nc(C)nc(N[C@H](C)c3cccc(C(F)(F)CO)c3)c2cc1O[C@H]1CCOC1 [I-1], the IC50 falls from 9 nM to 3 nM (3-fold).

same assay, conditions: read-out: IC50 (SOS1)

First: Cc1nc(N[C@H](C)c2cc(N)cc(C(F)(F)F)c2)c2cc([C@H]3CC[C@H](C(=O)N(C)C)CC3)cc(C)c2n1 [I-363]
Second: Cc1nc(N[C@H](C)c2cc(N)cc(C(F)(F)F)c2)c2cc([C@H]3CC[C@H](C(=O)N(C)C)CC3)c(C)cc2n1 [I-352]
The IC50 of the first is 2-fold higher: 4 nM for the first, 2 nM for the second. The second is the more potent here.

Compared with COCC(=O)N1CC=C(c2ccc3nc(C)nc(N[C@H](C)c4cc(N)cc(C(F)(F)F)c4)c3c2)CC1 [I-220], COCC(=O)N1CCC(c2ccc3nc(C)nc(N[C@H](C)c4cc(N)cc(C(F)(F)F)c4)c3c2)CC1 [I-314] is 1.5-fold lower in IC50: 3 nM for the first, 2 nM for the second. The second is the more potent here.

Compared with Cc1cccc([C@@H](C)Nc2nc(C)nc3ccc([C@H]4CC[C@H](C(=O)N5CCC(O)C5)CC4)cc23)c1 (stereo partly shown) [I-266], Cc1nc(N[C@H](C)c2cccc(C(F)(F)F)c2)c2cc([C@H]3CC[C@@H](C(=O)N(C)C4COC4)CC3)ccc2n1 [I-233] is 1.5-fold higher in IC50: 25 nM for the first, 38 nM for the second.

Compared with COc1cc2nc(C)nc(N[C@H](C)c3cc(N)cc(C(F)(F)F)c3)c2cc1[C@H]1CC[C@@H](C(=O)N2CCN(C)CC2)CC1 [I-354], COc1cc2nc(C)nc(N[C@H](C)c3cc(N)cc(C(F)(F)F)c3)c2cc1[C@H]1CC[C@H](C(=O)N2CCN(C)CC2)CC1 [I-353] is 11-fold lower in IC50: 22 nM for the first, 2 nM for the second.

First: COCC(=O)N1CCC(c2cc3c(N[C@H](C)c4cccc(C)c4)nc(C)nc3cc2OC)CC1 [I-282]
Second: COCC(=O)N1CCC(c2cc3c(N[C@H](C)c4cccc(C)c4)nc(C)nc3cc2C)CC1 [I-272]
The IC50 of the first is 1.7-fold lower: 20 nM for the first, 34 nM for the second.

First: CCn1cc(-c2cc3c(N[C@H](C)c4cc(N)cc(C(F)(F)F)c4)nc(C)nc3cc2C)ccc1=O [I-347]
Second: CCn1cc(-c2cc3c(N[C@H](C)c4cc(N)cc(C(F)(F)F)c4)nc(C)nc3cc2OC)ccc1=O [I-350]
The IC50 of the first is 1.5-fold lower: 6 nM for the first, 9 nM for the second.

Going from Cc1nc(N[C@H](C)c2cc(N)cc(C(F)(F)F)c2)c2cc([C@H]3CC[C@H](C(=O)N(C)CC(C)(C)O)CC3)ccc2n1 [I-258] to Cc1nc(N[C@H](C)c2cc(N)cc(C(F)(F)F)c2)c2cc([C@H]3CC[C@@H](C(=O)N(C)C[C@H](C)O)CC3)ccc2n1 [I-255], the IC50 rises from 3 nM to 8 nM (2.7-fold). The first is the more potent here.

First: CC(=O)N1CC=C(c2ccc3nc(C)nc(N[C@H](C)c4cccc(C(F)(F)F)c4)c3c2)CC1 [I-221]
Second: Cc1nc(N[C@H](C)c2cccc(C(F)(F)F)c2)c2cc(C3=CCC(C(=O)N(C)C)CC3)ccc2n1 (stereo partly shown) [I-222]
The IC50 of the first is 1.7-fold lower: 11 nM for the first, 19 nM for the second. The first is the more potent here.

Compared with COc1cc2nc(C)nc(N[C@H](C)c3cccc(C(F)(F)F)c3)c2cc1C1CCC(C(=O)N(C)CC(O)CO)CC1 (stereo partly shown) [I-227], COc1cc2nc(C)nc(N[C@H](C)c3cccc(C(F)(F)F)c3C)c2cc1[C@H]1CC[C@H](C(=O)N(C)CCO)CC1 [I-294] is 5.4-fold lower in IC50: 27 nM for the first, 5 nM for the second.

Compared with Cc1nc(N[C@H](C)c2cc(N)cc(C(F)(F)F)c2)c2cc([C@H]3CC[C@@H](C(=O)N(C)[C@H]4CCOC4)CC3)ccc2n1 [I-251], Cc1nc(N[C@H](C)c2cc(N)cc(C(F)(F)F)c2)c2cc([C@H]3CC[C@H](C(=O)N(C)[C@H]4CCOC4)CC3)ccc2n1 [I-250] is 2.5-fold lower in IC50: 10 nM for the first, 4 nM for the second.

COCCN1CCN(C(=O)[C@H]2CC[C@H](c3cc4c(N[C@H](C)c5cc(N)cc(C(F)(F)F)c5F)nc(C)nc4cc3OC)CC2)CC1 [I-246] and COc1cc2nc(C)nc(N[C@H](C)c3cc(N)cc(C(F)(F)F)c3F)c2cc1C1CCN(C(C)=O)CC1 [I-278] are the same in IC50: 2 nM for the first, 2 nM for the second.

First: COc1cc2nc(C)nc(N[C@H](C)c3cccc(C)c3)c2cc1C1CCS(=O)(=O)CC1 [I-312]
Second: COc1cc2nc(C)nc(N[C@H](C)c3cccc(C)c3)c2cc1C1CCN(C(C)=O)CC1 [I-281]
The IC50 of the first is 1.5-fold higher: 18 nM for the first, 12 nM for the second. The second is the more potent here.

First: COCCN(C)C(=O)[C@H]1CC[C@H](c2cc3c(N[C@H](C)c4cc(N)cc(C(F)(F)F)c4)nc(C)nc3cc2OC)CC1 [I-357]
Second: COCCN(C)C(=O)[C@H]1CC[C@@H](c2ccc3nc(C)nc(N[C@H](C)c4cc(N)cc(C(F)(F)F)c4)c3c2)CC1 [I-237]
The IC50 of the first is 3-fold lower: 3 nM for the first, 9 nM for the second.

First: Cc1nc(N[C@H](C)c2cc(N)cc(C(F)(F)F)c2)c2cc(C3CCS(=O)(=O)CC3)c(F)cc2n1 [I-320]
Second: COc1cc2nc(C)nc(N[C@H](C)c3cc(N)cc(C(F)(F)F)c3)c2cc1[C@H]1CC[C@@H](C(=O)N2CCOCC2)CC1 [I-360]
The IC50 of the first is 6.2-fold lower: 4 nM for the first, 25 nM for the second. The first is the more potent here.

Going from COc1cc2nc(C)nc(N[C@H](C)c3cc(N)cc(C(F)(F)F)c3)c2cc1-c1ccc(=O)n(C)c1 [I-108] to COc1cc2nc(C)nc(N[C@H](C)c3cccc(C(F)(F)F)c3)c2cc1-c1ccc(C(=O)N2CCOCC2)cc1 [I-215], the IC50 rises from 8 nM to 37 nM (4.6-fold). The first is the more potent here.

First: COCCN1CCN(C(=O)[C@H]2CC[C@@H](c3ccc4nc(C)nc(N[C@H](C)c5cc(N)cc(C(F)(F)F)c5)c4c3)CC2)CC1 [I-241]
Second: CC(=O)N1CCC(c2ccc3nc(C)nc(N[C@H](C)c4cccc(C(F)(F)F)c4)c3c2)CC1 [I-280]
The IC50 of the first is 2.4-fold lower: 7 nM for the first, 17 nM for the second. The first is the more potent here.

COc1cc2nc(C)nc(N[C@H](C)c3cc(N)cc(C(F)(F)F)c3C)c2cc1[C@H]1CC[C@@H](C(=O)N(C)C)CC1 [I-249] showed an IC50 of 38 nM.

same assay, conditions: values marked with * in the table; read-out: IC50 (SOS1)

Cc1cccc([C@@H](C)Nc2nc(C)nc3ccc(-c4ccn(CC(=O)O)c(=O)c4)cc23)c1 [I-342] and Cc1nc(N[C@H](C)c2cccc(C(F)(F)F)c2)c2cc(-c3ccc(=O)n(CC(=O)O)c3)ccc2n1 [I-341] are within 1.5-fold of each other in IC50: 48 nM for the first, 35 nM for the second.

First: Cc1nc(N[C@H](C)c2cccc(C(F)(F)F)c2)c2cc(-c3ccc(=O)[nH]c3)ccc2n1 [I-100]
Second: Cc1nc(N[C@H](C)c2cccc(C(F)(F)F)c2)c2cc(-c3ccc(=O)n(CC(=O)N(C)C)c3)ccc2n1 [I-333]
The IC50 of the first is 1.8-fold higher: 48 nM for the first, 26 nM for the second.

COc1cc2nc(C)nc(N[C@H](C)c3cccc(C)c3)c2cc1-c1ccc(=O)n(CC(=O)N(C)C)c1 [I-335] and COc1cc2nc(C)nc(N[C@H](C)c3cccc(C)c3)c2cc1-c1ccc(=O)[nH]c1 [I-101] are within 1.5-fold of each other in IC50: 27 nM for the first, 28 nM for the second.

First: COCC(=O)N1CCC(n2cc(-c3ccc4nc(C)nc(N[C@H](C)c5cccc(C)c5)c4c3)cn2)CC1 [I-219]
Second: COCC(=O)N1CCC(c2ccc3nc(C)nc(N[C@H](C)c4cccc(C)c4)c3c2)CC1 [I-277]
The IC50 of the first is 1.5-fold higher: 34 nM for the first, 22 nM for the second.

Cc1cccc([C@@H](C)Nc2nc(C)nc3ccc([C@H]4CC[S@](=N)(=O)CC4)cc23)c1 [I-332] and Cc1cccc([C@@H](C)Nc2nc(C)nc3ccc(C4CCS(=N)(=O)CC4)cc23)c1 (stereo partly shown) [I-330] are within 1.5-fold of each other in IC50: 18 nM for the first, 20 nM for the second.

Cc1nc(N[C@H](C)c2cccc(C(F)(F)F)c2)c2cc(-c3cc4n(n3)CCC(=O)N4)ccc2n1 [I-88] and Cc1nc(N[C@H](C)c2cccc(C(F)(F)F)c2)c2cc(-c3cnn(CC(=O)N(C)C)c3)ccc2n1 [I-85] are within 1.5-fold of each other in IC50: 30 nM for the first, 41 nM for the second.

With Cc1nc(N[C@H](C)c2cc(N)cc(C(F)(F)F)c2)c2cc(-c3ccc(=O)n(C)c3)c(C)cc2n1 [I-107] the IC50 was 4 nM.
